Assay results: article PMC2765047 (Journal of medicinal chemistry, 2009)
Where two headings read alike, the source gives them in different places.

Assays:
HCMV = settings: ref [1]; cited from earlier work
HCMV Towne = test: HCMV plaque reduction assay, Towne strain, in HFF cells; type: cell-based, human cytomegalovirus (HCMV); settings: Human betaherpesvirus 5, HFF, read-out: EC50 Virus Strain Towne
HFF cells [1] = settings: read-out: CC50 HCMV/HFF Towne; visual cytotoxicity in uninfected HFF's; ref [2]; cited from earlier work
HFF cells [2] = settings: read-out: CC50 HCMV/HFF AD169; cytotoxicity by neutral red uptake; ref [2]; cited from earlier work
Akata cells = settings: read-out: CC50 EBV/Akata, ref [28]; cited from earlier work
[3] = Visual cytotoxicity in uninfected HFF's used in plaque reduction assays; type: cell-based; settings: human
[4] = Cytotoxicity by neutral red uptake; type: cell-based; settings: human
ADA from calf intestine = biological target: T1, ADA from calf intestine (Bos taurus, UniProt P56658); test: Adenosine deaminase; type: biochemical
T1 sequence (P56658 1-363): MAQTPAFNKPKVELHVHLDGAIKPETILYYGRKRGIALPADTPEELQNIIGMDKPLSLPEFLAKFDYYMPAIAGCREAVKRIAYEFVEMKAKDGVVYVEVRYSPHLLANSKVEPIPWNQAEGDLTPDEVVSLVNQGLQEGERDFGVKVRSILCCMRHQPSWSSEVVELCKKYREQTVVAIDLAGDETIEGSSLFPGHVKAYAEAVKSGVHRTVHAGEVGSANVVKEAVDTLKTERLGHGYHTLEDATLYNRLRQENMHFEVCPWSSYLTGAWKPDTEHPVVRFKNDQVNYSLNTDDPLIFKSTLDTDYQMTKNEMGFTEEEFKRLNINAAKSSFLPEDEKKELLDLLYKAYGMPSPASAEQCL

in vitro = type: cell-based; settings: human
HSV-1 = HSV-1 antiviral assay; type: cell-based, herpes simplex virus 1; settings: human foreskin fibroblast (HFF) culture
HSV-2 = HSV-2 antiviral assay; type: cell-based, herpes simplex virus 2; settings: human foreskin fibroblast (HFF) culture

Nc1c2ncnc-2ncn1/C=C1\CC1CO (centres unmarked) [Compound 1a, synadenol]
activity against HCMV (in words) (HCMV): effective

Nc1nc(O)c2ncn(/C=C3/CC3CO)c2n1 (centres unmarked) [Compound 1b]
activity against HCMV (in words) (HCMV): highly effective

Nc1ncnc2c1ncn2C=C1CC1(CO)CO [Compound 3a]
activity against HCMV (in words) (HCMV): effective

Nc1nc2c(ncn2/C=C2/CC2(CO)CO)c(=O)[nH]1 [Compound 3b, cyclopropavir]
EC50 (HCMV Towne): 600 nM | CC50 (HFF cells [1]): > 100 µM | CC50 (HFF cells [2]): > 100 µM | CC50 (Akata cells): 46 µM | activity against HCMV (in words) (HCMV): highly effective

Nc1ncnc2c1ncn2/C=C1/C[C@@H]1[C@H](O)CO [Compound 12a]
CC50 [3]: > 100 µM | CC50 [4]: > 300 µM

Nc1nc2c(ncn2/C=C2/C[C@@H]2[C@H](O)CO)c(=O)[nH]1 [Compound 12b, (+)-9-{(Z)-{(S)-2-[(S)-1,2-Dihydroxyethyl)cyclopropylidene]methyl}guanine]
CC50 [3]: > 100 µM | CC50 [4]: > 300 µM

Nc1ncnc2c1ncn2/C=C1\C[C@@H]1[C@H](O)CO [Compound 13a]
CC50 [4]: > 300 µM

Nc1nc2c(ncn2/C=C2\C[C@@H]2[C@H](O)CO)c(=O)[nH]1 [Compound 13b]
CC50 [3]: > 100 µM

Nc1ncnc2c1ncn2/C=C1/C[C@@H]1[C@@H](O)CO [Compound 14a]
CC50 [3]: > 100 µM

Nc1nc2c(ncn2/C=C2/C[C@@H]2[C@@H](O)CO)c(=O)[nH]1 [Compound 14b]
CC50 [3]: > 100 µM | CC50 [4]: > 300 µM

Nc1ncnc2c1ncn2/C=C1\C[C@@H]1[C@@H](O)CO [Compound 15a]
CC50 [3]: > 100 µM | CC50 [4]: > 300 µM

Nc1nc2c(ncn2/C=C2\C[C@@H]2[C@@H](O)CO)c(=O)[nH]1 [Compound 15b]
CC50 [3]: > 100 µM | CC50 [4]: > 300 µM

Nc1nc2c(ncn2COC(CO)CO)c(=O)[nH]1 [Ganciclovir, ganciclovir]
EC50 (HCMV Towne): 2000 nM

Nc1ncnc2c1ncn2/C=C1/C[C@H]1[C@@H](O)CO [ent-12a]
CC50 [3]: > 100 µM | CC50 [4]: 194 µM | substrate activity toward ADA (in words) (ADA from calf intestine): resistant to deamination

Nc1nc2c(ncn2/C=C2/C[C@H]2[C@@H](O)CO)c(=O)[nH]1 [ent-12b]
CC50 (in vitro): 284 µM | activity against HSV-1 (in words) (HSV-1): inactive | activity against HSV-2 (in words) (HSV-2): inactive

Nc1ncnc2c1ncn2/C=C1\C[C@H]1[C@@H](O)CO [ent-13a]
CC50 [3]: > 100 µM

Nc1nc2c(ncn2/C=C2\C[C@H]2[C@@H](O)CO)c(=O)[nH]1 [ent-13b]
CC50 [3]: > 100 µM

Nc1ncnc2c1ncn2/C=C1/C[C@H]1[C@H](O)CO [ent-14a]
CC50 [3]: > 100 µM | substrate activity toward ADA (in words) (ADA from calf intestine): resistant to deamination

Nc1nc2c(ncn2/C=C2/C[C@H]2[C@H](O)CO)c(=O)[nH]1 [ent-14b]
CC50 [3]: > 300 µM | CC50 [4]: > 300 µM

Nc1ncnc2c1ncn2/C=C1\C[C@H]1[C@H](O)CO [ent-15a]
CC50 [3]: > 100 µM
